Results on 19 compounds are retold here after paper PMC12245108 (Advanced Science, 2025).

Where a SMILES comes first, the peptide text is derived from it. The star is where a group is joined. NHCH2CN = N#CCN*

Data set [1] has as its target MPXV I7L protease (Monkeypox virus, UniProt Q8V512). Put plainly: biochemical. The conditions noted are these: for inhibition at 100 µM: pH 7.5, read-out: inhibition rate.
Data set [2] deals with Vaccinia virus. As to the kind of experiment: microbe, parasite or virus in culture. The class given is cell-based. The conditions noted are these: Orthopoxvirus vaccinia, HeLa, 24 h, read-out: EC50 for vaccinia virus replication inhibition.
The test system of data set [3] is HeLa cells.
The nature of data set [4]: in vitro. The conditions noted are these: human.

As a reminder, the IC50 is the concentration that inhibits the measured activity by half. High values mean lower potency, low ones higher potency. In data set [1], `CC[C@H](C)[C@H](NC(C)=O)C(=O)N[C@@H](Cc1ccccc1)C(=O)N[C@@H](Cc1ccccc1)C(=O)N[C@@H](C)C(=O)NCC#N` [compound 1, (2S,3S)-2-acetamido-N-((S)-1-(((S)-1-(((S)-1-((cyanomethyl)amino)-1-oxopropan-2-yl)amino)-1-oxo-3-phenylpropan-2-yl)amino)-1-oxo-3-phenylpropan-2-yl)-3-methylpentanamide] (Ac-IFFA-NHCH2CN) yielded a concentration for half-maximal inhibition (IC50) of 171 nM.

A word on the inhibition: it is the share of the control response that was lost under treatment. For the compound `CC(C)(C)[C@H](NC(=O)C(F)(F)F)C(=O)N1C[C@H]2[C@@H]([C@H]1C(=O)N[C@H](C#N)C[C@@H]1CCNC1=O)C2(C)C` [Nirmatrelvir, reference compound], the inhibition at 100 µM in data set [1] was under 50%.

One may read the EC50 as the midpoint of the concentration-response curve. Take `CCCCCCCCCCCCCCCCOCCCOP(=O)(O)CO[C@H](CO)Cn1ccc(N)nc1=O` [Brincidofovir, reference compound]: in data set [2], the half-maximal effective concentration (EC50) is 900 nM.

Consider `CC(C)C[C@H](NC(=O)OCc1ccccc1)C(=O)N[C@@H](C[C@@H]1CCNC1=O)C(O)S(=O)(=O)[O-].[Na+]` (stereo partly shown) [GC376, reference compound], for which the inhibition rate entry in data set [1] (pH 7.5) is “below 50%”.

`CC(=O)N[C@@H](CC(=O)O)C(=O)N[C@@H](Cc1ccccc1)C(=O)N[C@@H](CO)C(=O)N[C@@H](C)C(=O)NCC#N` [compound 6, (4S,7S,10S,13S)-13-acetamido-10-benzyl-1-cyano-7-(hydroxymethyl)-4-methyl-3,6,9,12-tetraoxo-2,5,8,11-tetraazapentadecan-15-oic acid] (Ac-DFSA-NHCH2CN) displayed an IC50 in data set [1] of 74 ± 29 nM.

Consider `CCC[C@H](NC(=O)[C@@H]1[C@H]2CCC[C@H]2CN1C(=O)[C@@H](NC(=O)[C@@H](NC(=O)c1cnccn1)C1CCCCC1)C(C)(C)C)C(=O)C(=O)NC1CC1` [Telaprevir, reference compound], for which, in data set [1], the inhibition at 100 µM is under 50%.

In data set [1], `CC[C@H](C)[C@H](NC(=O)[C@@H](NC(=O)[C@H](CCSC)NC(C)=O)C(C)C)C(=O)N[C@@H](C)C(=O)NCC#N` [compound 2, (2S,3S)-2-((S)-2-((S)-2-acetamido-4-(methylthio)butanamido)-3-methylbutanamido)-N-((S)-1-((cyanomethyl)amino)-1-oxopropan-2-yl)-3-methylpentanamide] (Ac-MVIA-NHCH2CN) showed an IC50 of 132 nM.

`CC[C@H](C)[C@H](NC(C)=O)C(=O)N[C@H](C(=O)N[C@@H](CC(N)=O)C(=O)N[C@@H](C)C(=O)NCC#N)[C@@H](C)O` [compound 4, (S)-2-((2S,3R)-2-((2S,3S)-2-acetamido-3-methylpentanamido)-3-hydroxybutanamido)-N^1-((S)-1-((cyanomethyl)amino)-1-oxopropan-2-yl)succinamide] (Ac-ITNA-NHCH2CN): in data set [1], the IC50 was 1620 nM.

As for `CC[C@H](C)[C@H](NC(=O)[C@H](Cc1ccc(O)cc1)NC(=O)[C@@H]1CCCN1C(C)=O)C(=O)N[C@@H](C)C(=O)NCC#N` [compound 7, (S)-1-acetyl-N-((S)-1-(((2S,3S)-1-(((S)-1-((cyanomethyl)amino)-1-oxopropan-2-yl)amino)-3-methyl-1-oxopentan-2-yl)amino)-3-(4-hydroxyphenyl)-1-oxopropan-2-yl)pyrrolidine-2-carboxamide] (Ac-PYIA-NHCH2CN), in data set [1], the IC50 worked out at 241 ± 29 nM.

With `CC[C@H](C)[C@H](NC(C)=O)C(=O)N[C@@H](Cc1ccccc1)C(=O)N[C@@H](CC(N)=O)C(=O)N[C@@H](C)C(=O)NCC#N` [compound 8, (S)-2-((S)-2-((2S,3S)-2-acetamido-3-methylpentanamido)-3-phenylpropanamido)-N^1-((S)-1-((cyanomethyl)amino)-1-oxopropan-2-yl)succinamide] (Ac-IFNA-NHCH2CN), the midpoint of inhibition in data set [1], the IC50, lay at 71 nM.

`CC(=O)N[C@@H](Cc1ccc(O)cc1)C(=O)N[C@@H](Cc1ccccc1)C(=O)N[C@@H](Cc1ccc(O)cc1)C(=O)N[C@@H](C)C(=O)NCC#N` [compound 3, (S)-2-acetamido-N-((S)-1-(((S)-1-(((S)-1-((cyanomethyl)amino)-1-oxopropan-2-yl)amino)-3-(4-hydroxyphenyl)-1-oxopropan-2-yl)amino)-1-oxo-3-phenylpropan-2-yl)-3-(4-hydroxyphenyl)propanamide] (Ac-YFYA-NHCH2CN) yielded an IC50 in data set [1] of 79 ± 15 nM.

In the case of `CCCC[C@H](NC(=O)[C@@H]1[C@@H]2[C@H](CN1C(=O)[C@@H](NC(=O)NC1(CS(=O)(=O)C(C)(C)C)CCCCC1)C(C)(C)C)C2(C)C)C(=O)C(=O)NC1CC1` [Narlaprevir, reference compound], in data set [1], the inhibition at 100 µM is under 50%.

In the case of `Cn1cnc(Cn2c(=O)[nH]/c(=N\c3cc4cn(C)nc4cc3Cl)n(Cc3cc(F)c(F)cc3F)c2=O)n1` [Ensitrelvir, reference compound], in data set [1], the inhibition at 100 µM is under 50%.

As to `CC[C@H](C)[C@H](NC(=O)[C@@H](C)c1ccccc1)C(=O)N[C@@H](C)C(=O)NCC#N` [compound 11, (2S,3S)-N-((S)-1-((cyanomethyl)amino)-1-oxopropan-2-yl)-3-methyl-2-((S)-2-phenylpropanamido)pentanamide], the IC50 in data set [1] turned out to be 69 nM. Moreover, in data set [2], the half-maximal effective concentration (EC50) was determined as 6000 nM. Further, in data set [3], the cytotoxicity result is listed as “no detectable cytotoxicity”. The same compound returned a CC50 in data set [4] of over 400000 nM.

With `CC(C)(C)NC(=O)N[C@H](C(=O)N1C[C@H]2[C@@H]([C@H]1C(=O)NC(CC1CCC1)C(=O)C(N)=O)C2(C)C)C(C)(C)C` (stereo partly shown) [Boceprevir, reference compound], in data set [1], the inhibition at 100 µM is under 50%.

For `CC(C)c1nc(CN(C)C(=O)N[C@H](C(=O)N[C@@H](Cc2ccccc2)C[C@H](O)[C@H](Cc2ccccc2)NC(=O)OCc2cncs2)C(C)C)cs1` [Ritonavir, reference compound], the inhibition at 100 µM in data set [1] is under 50%.

Compound `CC[C@H](C)[C@H](NC(=O)[C@@H](NC(C)=O)C(C)C)C(=O)N[C@@H](C)C(=O)NCC#N` [compound 9, (2S,3S)-2-((S)-2-acetamido-3-methylbutanamido)-N-((S)-1-((cyanomethyl)amino)-1-oxopropan-2-yl)-3-methylpentanamide] registered an IC50 in data set [1] of 400 nM.

Consider `CC[C@H](C)[C@H](NC(=O)Cc1ccccc1)C(=O)N[C@@H](C)C(=O)NCC#N` [compound 10, (2S,3S)-N-((S)-1-((cyanomethyl)amino)-1-oxopropan-2-yl)-3-methyl-2-(2-phenylacetamido)pentanamide], for which half-maximal inhibition in data set [1] (IC50) required 122 nM. For the same compound, in data set [2], the EC50 was found to be 6300 nM. Moreover, the cytotoxicity entry in data set [3] is “no detectable cytotoxicity”. For the same compound, in data set [4], the CC50 is over 400000 nM.

For `Cc1cccc(C)c1OCC(=O)N[C@@H](Cc1ccccc1)[C@@H](O)C[C@H](Cc1ccccc1)NC(=O)[C@H](C(C)C)N1CCCNC1=O` [Lopinavir, reference compound], in data set [1], the inhibition at 100 µM is under 50%.
